# Results from US10517877B2, “Compounds and methods for modulating frataxin expression” (Wisconsin Alumni Research Foundation, priority 2016, dated 2019).
# How the values were obtained:
# [1] = test system: MYC transcription in MM cells; details: MM cells bearing IgH rearrangement at the MYC locus; cited from earlier work
# [2] = test system: cell cycle; details: cited from earlier work
# [3] = test system: frataxin (FXN) mRNA in GM15850 cells; test: FXN mRNA by RT-PCR in GM15850 FRDA patient cell line; type: cell-based, human; details: 1 μM, 24 hours, normalized to TBP, relative to 0.1% DMSO
# From the text: GM15850 and GM15851 cell lines (Epstein Barr virus transformed human B-lymphocytes) were obtained from the National Institute of General Medical Sciences (NIGMS) Human Genetic Cell Repository at the Coriell Institute for Medical Research, Camden, N.J. The GM15850 cell line was derived from a clinically affected Friedreich's ataxia patient ataxia displaying scoliosis, hypertrophic cardiomyopathy, and slurred speech, and characterized as homozygous for the GAA expansion in the frataxin gene with alleles of approximately 650 and 1030 repeats. The GM15851 cell line was derived from a clinically unaffected individual having two FRDA alleles in the normal range of GAA trinucleotide repeats (from about 6 to about 34 repeats). This clinically unaffected individual is a sibling of the clinically affected patient from which the GM15850 cell line was derived.
# Cells were maintained in RPMI 1640 supplemented with 2 mM L-glutamine and 15% fetal bovine serum (FBS) at 37° C. in a humidified atmosphere of 5% CO2. Cell density was maintained between 200,000 cells/mL and 1,000,000 cells/mL. Cell growth and morphology were monitored by phase contrast microscopy and cell viability by trypan blue exclusion. To maintain cell density, cells were passaged by centrifuging at 500g for 3 minutes and resuspending the cells in fresh media. […]
# [4] = test system: FXN protein in GM15850 cells; test: Immunoblot for FXN protein in GM15850 cells; type: cell-based, human; details: 24 hours, 1 μM, Agent 4 0.1, 0.5 or 1 μM
# Method: (§1) In FIG. 3A, “50” refers to GM15850 cells and in FIG. 3B, “51” refers to GM15851 cells. Cells were treated as in Example 4.
# (§2) Total cell extracts from cell lines were used for immunoblot analysis. Antibodies to frataxin (abcam ab110328, 1:250 dilution) or alpha-Tubulin (Cell Signaling Technologies 2144, 1:1000 dilution) were used. Signal was detected by chemiluminescence with HRP-conjugated secondary antibodies (Bio-Rad 172-1011, 1:2000 for anti-mouse frataxin and GE NA934V, 1:2000 for anti-rabbit alpha-Tubulin).
# [5] = test system: FXN-GAA-Luc reporter cell line; test: Luciferase reporter assay, FXN-GAA-Luc line (~310 GAA repeats); type: cell-based; details: 24 hours, Agent 4 at 1 or 2 μM, other treatments 2 μM
# Method: Treatments are 2 μM unless otherwise indicated. Results are mean±SEM (n=4).
# [6] = test system: FXN protein in GM15851 cells; test: Immunoblot for FXN protein in GM15851 cells; type: cell-based, human; details: 24 hours, 1 μM, Agent 4 0.1, 0.5 or 1 μM
# Method: as §1, §2
Structure (SMILES),MYC transcription [1],cell cycle effect [2],increase in FXN mRNA levels [3],FXN protein (immunoblot) [4],luciferase activity [5],FXN protein (immunoblot) [6]
Cc1sc2c(c1C)C(c1ccc(Cl)cc1)=N[C@@H](CC(=O)OC(C)(C)C)c1nnc(C)n1-2 [JQ1],inhibits MYC transcription in a dose- and time-dependent manner,known to cause cell cycle arrest,no increase,"Neither polyamide alone (3), nor JQ1, nor the unconjugated treatment induced increased production of FXN protein",Significant activation was not observed,–
Cc1sc2c(c1C)C(c1ccc(Cl)cc1)=N[C@@H](CC(=O)NCCOCCOCCOCCOCCOCCOCCC(=O)NCCCN(C)CCCNC(=O)CCNC(=O)c1cc(NC(=O)c3cc(NC(=O)c4nc(NC(=O)c5cc(NC(=O)CCCNC(=O)c6nc(NC(=O)c7cc(NC(=O)c8cc(NC(=O)c9sccc9Cl)cn8C)cn7C)cn6C)cn5C)cn4C)cn3C)cn1C)c1nnc(C)n1-2 [Control Conjugate 2],–,–,no increase,–,–,increase in FXN protein
